Test results published in ChEMBL document CHEMBL4828719, “H2dpa derivatives containing pentadentate ligands: An acyclic adjuvant potentiates meropenem activity in vitro and in vivo against metallo-β-lactamase-producing Enterobacterales” (Eur J Med Chem, 2021).
≈ marks a conversion by molar mass, not a printed value. Calls of active or inactive are those of the source. The rule behind the calls is not given here.

How the values were obtained:
[1] = system: Escherichia coli; assay: Antibacterial activity against IMP-4 producing Escherichia coli DH5alpha assessed as decrease in bacterial growth incubated for 16 to 20 hrs by CLSI based microdilution method; format: functional; settings: DH5[alpha], time 16-20 hrs
[2] = system: Escherichia coli; assay: Antibacterial activity against VIM-1 producing Escherichia coli DH5alpha assessed as decrease in bacterial growth incubated for 16 to 20 hrs by CLSI based microdilution method; format: functional; settings: DH5[alpha], time 16-20 hrs
[3] = system: Escherichia coli; assay: Synergistic antibacterial activity against IMP-4 producing Escherichia coli DH5alpha assessed as fractional inhibitory concentration index incubated for 16 to 20 hrs in presence of meropenem by checkerboard assay; format: functional, DH5[alpha]; settings: time 16-20 hrs
[4] = system: Escherichia coli; assay: Antibiotic adjuvant activity against VIM-1 producing Escherichia coli DH5alpha assessed as potentiation of meropenem-induced antibacterial activity incubated for 16 to 20 hrs by agar disc diffusion assay; format: functional, organism-based; settings: DH5[alpha], time 16-20 hrs
[5] = system: Escherichia coli; assay: Antibiotic adjuvant activity against NDM-1 producing Escherichia coli DH5alpha assessed as potentiation of meropenem-induced antibacterial activity incubated for 16 to 20 hrs by agar disc diffusion assay; format: functional, organism-based; settings: DH5[alpha], time 16-20 hrs
[6] = system: Escherichia coli; assay: Synergistic antibacterial activity against VIM-1 producing Escherichia coli DH5alpha assessed as fractional inhibitory concentration index incubated for 16 to 20 hrs in presence of meropenem by checkerboard assay; format: functional, DH5[alpha]; settings: time 16-20 hrs
[7] = Zinc chelation-dependent inhibition of NDM-1 (unknown origin) expressed in Escherichia coli BL21 (DE3) using meropenem as substrate preincubated with enzyme for 5 to 10 mins followed by substrate addition
[8] = system: Escherichia coli; assay: Synergistic antibacterial activity against NDM-1 producing Escherichia coli DH5alpha assessed as fractional inhibitory concentration index incubated for 16 to 20 hrs in presence of meropenem by checkerboard assay; format: functional, DH5[alpha]; settings: time 16-20 hrs
[9] = Zinc chelation-dependent inhibition of VIM-2 (unknown origin) expressed in Escherichia coli BL21 (DE3) using nitrocefin as substrate preincubated with enzyme for 5 to 10 mins followed by substrate addition
[10] = system: Escherichia coli; assay: Antibiotic adjuvant activity against IMP-4 producing Escherichia coli DH5alpha assessed as potentiation of meropenem-induced antibacterial activity incubated for 16 to 20 hrs by agar disc diffusion assay; format: functional, organism-based; settings: DH5[alpha], time 16-20 hrs
[11] = system: Escherichia coli; assay: Antibacterial activity against NDM-1 producing Escherichia coli DH5alpha assessed as decrease in bacterial growth incubated for 16 to 20 hrs by CLSI based microdilution method; format: functional; settings: DH5[alpha], time 16-20 hrs
[12] = Zinc chelation-dependent inhibition of IMP-4 (unknown origin) expressed in Escherichia coli BL21 (DE3) using imipenem as substrate preincubated with enzyme for 5 to 10 mins followed by substrate addition
[13] = Zinc chelation-dependent inhibition of IMP-1 (unknown origin) expressed in Escherichia coli DH5 alpha using imipenem as substrate preincubated with enzyme for 5 mins followed by substrate addition in the presence of zinc sulfate
[14] = Zinc chelation-dependent inhibition of NDM-1 (unknown origin) expressed in Escherichia coli DH5 alpha using meropenem as substrate preincubated with enzyme for 5 mins followed by substrate addition in the presence of zinc sulfate
[15] = Zinc chelation-dependent inhibition of VIM-2 (unknown origin) expressed in Escherichia coli DH5 alpha using nitrocefin as substrate preincubated with enzyme for 5 mins followed by substrate addition in presence of zinc sulfate

MIC [1] [µg/mL] | MIC [2] [µg/mL] | IC50 [7] [nM] | IC50 [9] [nM] | MIC [11] [µg/mL] | IC50 [12] [nM] | Activity [13] | Activity [14] | Activity [15] | Compound | fractional inhibitory concentration index (FICI) [3] | Activity [4] | Activity [5] | fractional inhibitory concentration index (FICI) [6] | fractional inhibitory concentration index (FICI) [8] | Activity [10]
128 (≈ 446 µM) | 128 (≈ 446 µM) | 1540 | 1050 | 128 (≈ 446 µM) | 1040 | – | – | – | O=C(O)c1cccc(CNCc2cccc(C(=O)O)n2)n1 | 0.14 | Active | Active | 0.07 | 0.07 | Active
– | – | – | – | – | – | Active | Active | Active | C[C@H](CS)C(=O)N1CCC[C@H]1C(=O)O [CAPTOPRIL] | – | – | – | – | – | –
128 (≈ 324 µM) | 128 (≈ 324 µM) | 1650 | 2030 | 128 (≈ 324 µM) | 4840 | – | – | – | O=C(O)c1cccc(CN(CCP(=O)(O)O)Cc2cccc(C(=O)O)n2)n1 | 0.14 | Active | Active | 0.07 | 0.07 | Active
– | – | 4000 | > 200000 | – | 9600 | – | – | – | N[C@@H](CN[C@@H](CN[C@@H](CC(=O)O)C(=O)O)C(=O)O)C(=O)O | – | – | – | – | – | –
128 (≈ 371 µM) | 128 (≈ 371 µM) | 1670 | 1530 | 128 (≈ 371 µM) | 3880 | – | – | – | O=C(O)CN(Cc1cccc(C(=O)O)n1)Cc1cccc(C(=O)O)n1 | 0.14 | Active | Active | 0.07 | 0.07 | Active
– | – | 1750 | > 200000 | – | 12500 | inactive | inactive | inactive | O=C(O)CN(CCN(CC(=O)O)CC(=O)O)CC(=O)O [EDETIC ACID] | – | – | – | – | – | –
